Measured values: PMC9295568, “Dual Inhibition of Vacuolar-ATPase and TMPRSS2 Is Required for Complete Blockade of SARS-CoV-2 Entry into Cells” (Antimicrobial Agents and Chemotherapy, 2022)
Like-named read-outs stand apart in the source and are kept apart here.

Legend:
Format in all cases: cell-based
[1] = test system: SARS-CoV-2 PsV B.1.351 (Beta); experiment: microbe, parasite or virus in culture; conditions: Severe acute respiratory syndrome coronavirus 2, HeLa-ACE2, read-out: IC50, inhibition of PsV entry
[2] = test system: SARS-CoV-2 PsV B.1.1.7 (Alpha); experiment: microbe, parasite or virus in culture; conditions: Severe acute respiratory syndrome coronavirus 2, HeLa-ACE2, read-out: IC50, inhibition of PsV entry
[3] = test system: SARS-CoV-2 PsV B.1.1.529 (Omicron); experiment: microbe, parasite or virus in culture; conditions: Severe acute respiratory syndrome coronavirus 2, HeLa-ACE2, read-out: IC50, inhibition of PsV entry
[4] = test system: SARS-CoV-2 PsV B.1.1.7 (Alpha); experiment: microbe, parasite or virus in culture; conditions: Severe acute respiratory syndrome coronavirus 2, Vero/TMPRSS2, read-out: IC50, inhibition of PsV entry
[5] = test system: authentic SARS-CoV-2 (SARS-CoV-2/Canada/ON/VIDO-01/2020/Vero'76/p2); experiment: microbe, parasite or virus in culture; conditions: for IC50: Severe acute respiratory syndrome coronavirus 2, read-out: IC50, authentic SARS-CoV-2
[6] = test system: SARS-CoV-2 PsV B.1.351 (Beta); experiment: microbe, parasite or virus in culture; conditions: Severe acute respiratory syndrome coronavirus 2, Vero/TMPRSS2, read-out: IC50, inhibition of PsV entry
[7] = test system: SARS-CoV-2 PsV (wild-type S protein); experiment: microbe, parasite or virus in culture
[8] = test system: SARS-CoV-2 PsV (wild-type S protein); experiment: microbe, parasite or virus in culture; conditions: for IC50: Severe acute respiratory syndrome coronavirus 2, Vero-TMPRSS2 (+TMPRSS2), WT PsV, read-out: IC50, inhibition of PsV entry
SARS-CoV-2 PsV = test system: SARS-CoV-2 PsV
[9] = test system: SARS-CoV-2 PsV B.1.1.529 (Omicron); experiment: microbe, parasite or virus in culture; conditions: Severe acute respiratory syndrome coronavirus 2, Vero/TMPRSS2, read-out: IC50, inhibition of PsV entry
[10] = test system: authentic SARS-CoV-2 (SARS-CoV-2/Canada/ON/VIDO-01/2020/Vero'76/p2); experiment: microbe, parasite or virus in culture; conditions: for IC50: Severe acute respiratory syndrome coronavirus 2, Vero 76, read-out: IC50, authentic SARS-CoV-2
[11] = test system: endosomal acidification in HeLa-ACE2 cells; experiment: Inhibition of endosomal acidification (LysoTracker Red DND-99), HeLa-ACE2 cells
Experimental: Inhibition of endosomal acidification was measured using LysoTracker Red DND-99 (ThermoFisher). HeLa-ACE2 and Vero-TMPRSS2 cells were prepared following the above-mentioned protocol, where 10,000 cells/well of pre-seeded cells were cocultured with the same serial dilutions of the sample compounds at 37°C for 2 h. Following this, 0.1 μM final concentration of LysoTracker Red DND-99 (ThermoFisher) was added to each well and incubated for 30 min at 37°C. The cell medium was then replaced with 100 μL of FluoroBrite DMEM (ThermoFisher). Fluorescence was measured using a Synergy Neo2 Multi-Mode Assay Microplate Reader (Biotek Instruments) while employing a Texas Red filter. Data were plotted and IC50 values were calculated using Prism 9 (GraphPad).

[12] = Cell viability (CellTiter-Glo), HeLa-ACE2 cells; conditions: human, read-out: half-cytotoxic concentration (CC50)
Experimental: (§1) In order to confirm that the reduced luminescence was not related to cell toxicity, HeLa-ACE2 and Vero-TMPRSS2 cell viability upon incubation with serial dilutions of the sample compounds were tested in parallel to the neutralization assay. […] Cell viability was monitored by adding 50 μL of CellTiter-Glo reagent (Promega) to 200 μL of media containing cells. After a 10-minute incubation, 100 μL volume was transferred to a 96-well white plate (Sigma-Aldrich) to measure luminescence using a Synergy Neo2 Multi-Mode Assay Microplate Reader (Biotek Instruments). As an additional measure of cell toxicity Vero cell, lacking TMPRSS2, viability was measured using PrestoBlue (ThermoFisher). 10,000 cells/well of pre-seeded Vero cells were cocultured with the same serial dilutions of the sample compounds at 37°C for 48 h. At 48 h, 10 μL of PrestoBlue (ThermoFisher) was added to 100 μL of media containing cells. After a 2 h incubation, fluorescence was measured using a Spectromax m5e (Molecular Devices) at an excitation of 555 nm and emission of 585 nm. Data were plotted and half-cytotoxic concentration (CC50) values were calculated using Prims 9 (GraphPad).

[13] = test system: endosomal acidification in Vero cells; experiment: cells; conditions: Chlorocebus sabaeus; Vero cells, 40 μM, singlet (n=1); read-out: Percent Inhibition (%) of endosomal acidification
Experimental: Inhibition of endosomal acidification was measured using LysoTracker Red DND-99 (ThermoFisher). […] Data were plotted using Prism 9 (GraphPad).

HeLa-ACE2 cells = experiment: Cell viability (CellTiter-Glo), HeLa-ACE2 cells; conditions: same dose range as PsV assay
Experimental: as §1

[14] = HeLa-ACE2, concentrations up to 40 μM
[15] = HeLa-ACE2, concentrations higher than 1 μM

Row | Compound | IC50 [1] | IC50 [2] | IC50 [3] | IC50 [5] | IC50 [6] | IC50 [8] | inhibition of PsV entry by single compound (in words) (SARS-CoV-2 PsV) | IC50 [9] | IC50 [10] | CC50 [12] | inhibition at 40 µM [13] | other results
1 | CN(C)C(=O)COC(=O)Cc1ccc(OC(=O)c2ccc(NC(=N)N)cc2)cc1 [Camostat] | > 300000 nM | > 300000 nM | > 300000 nM | 38 nM | 275 nM | 252 nM | neither Camostat nor bafilomycin A1 alone fully inhibited PsV entry | > 7500 nM | > 100000 nM |  |  | IC50 [4]: 133 nM; inhibition of PsV entry (in words) ([7]; HeLa-ACE2 cells lacking TMPRSS2): unable to inhibit; IC50 ([7]; Severe acute respiratory syndrome coronavirus 2, HeLa-ACE2, read-out: IC50, inhibition of PsV entry, HeLa-ACE2 (-TMPRSS2), WT PsV): > 300 µM; IC50 ([7]; Severe acute respiratory syndrome coronavirus 2, HeLa-ACE2, read-out: IC50, inhibition of PsV entry, HeLa-ACE2 (-TMPRSS2), wild-type S PsV): > 200 µM
2 | O=C(Nc1cc(Cl)cc(Cl)c1O)c1c(O)c(Cl)cc(Cl)c1Cl [Oxyclozanide, oxyclozanide] |  |  |  |  |  |  |  |  |  | 18.7 µM | 55% | effect on endosomal acidification (in words) [11, 14]: did not alter; effect on infection levels (in words) [7, 14]: did not alter
3 | CO/C1=C\C(C)=C\[C@@H](C)[C@@H](O)[C@@H](C)C/C(C)=C/C=C/[C@H](OC)[C@@H]([C@@H](C)[C@@H](O)[C@H](C)[C@@]2(O)C[C@@H](O)[C@H](C)[C@@H](C(C)C)O2)OC1=O [bafilomycin A1] | 0.5 nM | 0.8 nM | 0.3 nM | 0.4 nM | 3.4 nM | 9.6 nM | neither Camostat nor bafilomycin A1 alone fully inhibited PsV entry | 1.9 nM | 9 nM |  |  | IC50 ([11]; HeLa-ACE2 cells): 0.9 nM; effect on SARS-CoV-2 infection titers (in words) [5]: significantly reduced; IC50 ([7]; Severe acute respiratory syndrome coronavirus 2, HeLa-ACE2, HeLa-ACE2 (-TMPRSS2), WT PsV, read-out: IC50, inhibition of PsV entry): 0.0004 µM; potency of bafilomycin A1 relative to Camostat in stopping viral entry ([8]; Vero-TMPRSS2, ratio of IC50 values): 26 fold; associated cell cytotoxicity (in words) (HeLa-ACE2 cells): without displaying any associated cell cytotoxicity; effect on SARS-CoV-2 infection titers (in words) [10]: significantly reduced
4 | O=C(Nc1ccc([N+](=O)[O-])cc1Cl)c1cc(Cl)ccc1O [niclosamide] |  |  |  |  |  |  |  |  |  | 0.4 µM | 75% | endosomal acidification inhibition (in words) [11, 15]: efficient endosomal acidification inhibition; PsV infection (in words) [7, 15]: no measurable infection
